These are literature values, as cited in patent publication US5296468A, “GnRH analogs” (The Salk Institute for Biological Studies, priority 1993, dated 1994).

The target in one series is T1, the receptor (Homo sapiens, UniProt P30968).
T1 sequence (P30968 1-328): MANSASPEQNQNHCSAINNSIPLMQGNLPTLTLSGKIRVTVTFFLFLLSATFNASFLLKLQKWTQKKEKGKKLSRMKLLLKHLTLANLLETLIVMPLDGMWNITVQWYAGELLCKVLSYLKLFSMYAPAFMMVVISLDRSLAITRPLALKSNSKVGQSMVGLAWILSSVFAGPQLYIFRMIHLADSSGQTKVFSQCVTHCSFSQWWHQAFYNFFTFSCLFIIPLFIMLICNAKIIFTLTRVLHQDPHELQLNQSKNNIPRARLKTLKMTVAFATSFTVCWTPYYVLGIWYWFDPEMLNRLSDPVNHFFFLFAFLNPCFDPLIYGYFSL
The conditions noted are these: background, U.S. Pat. No. 4,072,668.

For series [1] the following is noted: background, U.S. Pat. No. 4,072,668.

In the case of “pGlu-His-Trp-Ser-Tyr-D-Ala-Leu-Arg-Pro-Gly-NH2 [[D-Ala^6]-GnRH]”, on the receptor, the “binding strength to the receptor compared with the native hormone” value was “greater binding strength to the receptor”. For the same substance, in series [1], the “biological potency compared with the native hormone” value is “greater biological potency than the native hormone”.
